Measurements: patent US5028730A, “Antihypercholesterolemic nitrile compounds” (Bristol-Myers Company, priority 1990, dated 1991)

Target: T1, microsomal form of rat liver HMG-CoA reductase (Rattus norvegicus, UniProt P51639)
T1 construct: from tissue; host or cells: rat liver microsomes
T1 sequence (P51639 1-887): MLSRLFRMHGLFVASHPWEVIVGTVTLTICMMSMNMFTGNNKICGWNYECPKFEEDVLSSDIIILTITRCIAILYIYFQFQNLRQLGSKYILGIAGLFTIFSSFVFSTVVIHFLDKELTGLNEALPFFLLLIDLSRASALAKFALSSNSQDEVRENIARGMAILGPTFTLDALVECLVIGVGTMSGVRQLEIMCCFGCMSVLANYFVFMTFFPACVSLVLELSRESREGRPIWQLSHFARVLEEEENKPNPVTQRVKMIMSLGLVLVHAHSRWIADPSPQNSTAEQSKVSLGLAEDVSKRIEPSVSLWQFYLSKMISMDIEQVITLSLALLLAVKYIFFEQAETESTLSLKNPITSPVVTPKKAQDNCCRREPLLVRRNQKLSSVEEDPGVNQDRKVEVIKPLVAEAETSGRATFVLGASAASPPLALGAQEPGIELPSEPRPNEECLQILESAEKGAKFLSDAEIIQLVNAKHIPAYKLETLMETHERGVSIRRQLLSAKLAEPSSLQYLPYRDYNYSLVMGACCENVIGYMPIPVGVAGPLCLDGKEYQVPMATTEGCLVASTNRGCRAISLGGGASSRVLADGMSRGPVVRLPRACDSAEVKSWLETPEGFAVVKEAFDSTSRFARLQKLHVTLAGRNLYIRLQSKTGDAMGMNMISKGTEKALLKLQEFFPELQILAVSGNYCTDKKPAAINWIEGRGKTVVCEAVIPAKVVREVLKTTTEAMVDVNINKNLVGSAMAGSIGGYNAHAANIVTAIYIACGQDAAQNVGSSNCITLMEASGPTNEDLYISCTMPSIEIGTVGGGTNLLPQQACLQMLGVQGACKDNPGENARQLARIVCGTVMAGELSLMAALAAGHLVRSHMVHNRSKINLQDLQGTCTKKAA
Experiment: In Vitro Inhibition of Microsomal HMG-CoA Reductase
Assay type: biochemical
Conditions: 50 percent inhibitory concentration, rat liver microsomes, [3-14C]-HMG-CoA 0.33 mM, NADPH 3.0 mM, pH 7.2, at least 4 dilutions in duplicate
Description: The intact, fully activated microsomal form of rat liver HMG-CoA reductase (subunit MW ca 100,000 daltons) was prepared as described by Parker, et al., Biochem. Biophys. Res. Commun., 125, 629-635 (1984), and used as the source of enzyme for assays. HMG-CoA reductase activity was determined essentially by the method of Shapiro, et al., Biochem. Biophys. Acta., 370, 369-377 (1974), with modifications as described by Ingebritsen and Gibson, Meth. Enzymol, 71, 486-497 (1981) with the exception that the internal standard ^3 H-mevalonolactone is added after termination of the assay. […]
To measure reductase inhibition, test compounds dissolved in water or dimethylsulfoxide and diluted in buffer A (50 mM imidazole-HCl, 250 mM NaCl, 1 mM EDTA, 1 mM EGTA, 5 mM DTT, 20 μM leupeptin, pH=7.2) were incubated with aliquots of microsomes (80-160 μg protein in buffer A) followed by addition of d,1-[3-^14 C]-HMG-CoA (0.33 mM, 2.0 dpm/picomole) and NADPH (3.0 mM). The 50 percent inhibitory concentration (IC50) for each compound in Table 1 was calculated from the linear regression line of the percent decrease (from control) in enzyme activity vs. log concentration of inhibitor, determined using at least 4 dilutions of each test compound assayed in duplicate.

| IC50 [µM] | Compound |
| --- | --- |
| 26 | N#CC(/C=C/[C@H]1C[C@H](O)CC(=O)O1)=C(c1ccc(F)cc1)c1ccc(F)cc1 (relative stereo) [Example 8, Trans-(E)-2-[bis(4-fluorophenyl)methylene]-4-(tetrahydro-4-hydroxy-6-oxo-2H-pyran-2-yl)-3-butenenitrile] |
| 8 | N#CC(/C=C/[C@@H](O)C[C@@H](O)CC(=O)O)=C(c1ccc(F)cc1)c1ccc(F)cc1 (relative stereo) [Example 7, Sodium (±)-(E)-erythro-8-cyano-9,9-bis(4-fluorophenyl)-3,5-dihydroxy-6,8-nonadienoate] |
